Reference: patent US20050256003A1, “Novel herbicides” (priority 2002, published 2005)

Test system: monocotyledonous and dicotyledonous test plants
Experiment: Post-emergence herbicidal action
Format: in vivo
Parameters: key: 10=total damage; 0=no action; Ratings of from 10 to 7 (especially from 10 to 8) indicate good to very good herbicidal action
Conditions: about 18 days, rating 0-10
Method: Post-Emergence Herbicidal Action
In a greenhouse, monocotyledonous and dicotyledonous test plants are grown in standard soil in plastic pots and at the 4- to 6-leaf stage are sprayed with an aqueous suspension of the test compounds of formula I prepared from a 25% wettable powder (Example F3, b) according to WO 97/34485) or with an emulsion of the test compounds of formula I prepared from a 25% emulsifiable concentrate (Example F1, c) according to WO 97/34485), in a concentration corresponding to 125 g or 250 g of active ingredient/ha (500 litres of water/ha). The test plants are then grown on in a greenhouse under optimum conditions. After a test duration of about 18 days, the test is evaluated in accordance with a scale of nine ratings (10=total damage, 0=no action). Ratings of from 10 to 7 (especially from 10 to 8) indicate good to very good herbicidal action.

Cc1nn(Cc2nc(C(F)(F)F)ccc2C(=O)C2=C(O)C(C)(C)CC(C)(C)C2=O)c(=O)s1 [Compound A7.009]
Post-emergence action, Amaranthus (250 g a.i./ha): 4
Post-emergence action, Chenopodium (250 g a.i./ha): 9
Post-emergence action, Echinochloa (250 g a.i./ha): 7
Post-emergence action, Euphorbia (250 g a.i./ha): 7
Post-emergence action, Ipomea (250 g a.i./ha): 7
Post-emergence action, Sinapis (250 g a.i./ha): 8
Post-emergence action, Stellaria (250 g a.i./ha): 7
Post-emergence action, Xanthium (250 g a.i./ha): 7

O=C1CCCC(O)=C1C(=O)c1ccc(C(F)(F)F)nc1Cn1sc(Cl)cc1=O [Compound A1.115]
Post-emergence action, Amaranthus (250 g a.i./ha): 9
Post-emergence action, Chenopodium (250 g a.i./ha): 9
Post-emergence action, Echinochloa (250 g a.i./ha): 7
Post-emergence action, Euphorbia (250 g a.i./ha): 8
Post-emergence action, Ipomea (250 g a.i./ha): 7
Post-emergence action, Sinapis (250 g a.i./ha): 3
Post-emergence action, Stellaria (250 g a.i./ha): 9
Post-emergence action, Xanthium (250 g a.i./ha): 9

Cc1nn(Cc2nc(C(F)(F)F)ccc2C(=O)C2=C(O)C(C)(C)CC(C)(C)C2=O)c(=O)o1 [Compound A7.008]
Post-emergence action, Amaranthus (250 g a.i./ha): 5
Post-emergence action, Chenopodium (250 g a.i./ha): 9
Post-emergence action, Echinochloa (250 g a.i./ha): 7
Post-emergence action, Euphorbia (250 g a.i./ha): 7
Post-emergence action, Ipomea (250 g a.i./ha): 7
Post-emergence action, Sinapis (250 g a.i./ha): 9
Post-emergence action, Stellaria (250 g a.i./ha): 9
Post-emergence action, Xanthium (250 g a.i./ha): 8

CCOc1nn(Cc2nc(C(F)(F)F)ccc2C(=O)c2cnn(C)c2O)c(=O)n1C [Compound B1.005]
Post-emergence action, Amaranthus (250 g a.i./ha): 9
Post-emergence action, Chenopodium (250 g a.i./ha): 9
Post-emergence action, Echinochloa (250 g a.i./ha): 4
Post-emergence action, Euphorbia (250 g a.i./ha): 9
Post-emergence action, Ipomea (250 g a.i./ha): 8
Post-emergence action, Sinapis (250 g a.i./ha): 9
Post-emergence action, Stellaria (250 g a.i./ha): 8
Post-emergence action, Xanthium (250 g a.i./ha): 6

CCOc1nn(Cc2nc(C(F)(F)F)ccc2C(=O)c2cnn(C)c2O)c(=O)n1CC [Compound B1.050]
Post-emergence action, Amaranthus (250 g a.i./ha): 9
Post-emergence action, Chenopodium (250 g a.i./ha): 9
Post-emergence action, Echinochloa (250 g a.i./ha): 4
Post-emergence action, Euphorbia (250 g a.i./ha): 9
Post-emergence action, Ipomea (250 g a.i./ha): 7
Post-emergence action, Sinapis (250 g a.i./ha): 9
Post-emergence action, Stellaria (250 g a.i./ha): 7
Post-emergence action, Xanthium (250 g a.i./ha): 8

COc1nn(Cc2nc(C(F)(F)F)ccc2C(=O)c2cnn(C)c2O)c(=O)n1C [Compound B1.004]
Post-emergence action, Amaranthus (250 g a.i./ha): 8
Post-emergence action, Chenopodium (250 g a.i./ha): 9
Post-emergence action, Echinochloa (250 g a.i./ha): 8
Post-emergence action, Euphorbia (250 g a.i./ha): 9
Post-emergence action, Ipomea (250 g a.i./ha): 8
Post-emergence action, Sinapis (250 g a.i./ha): 10
Post-emergence action, Stellaria (250 g a.i./ha): 8
Post-emergence action, Xanthium (250 g a.i./ha): 9

Cn1c(C(F)(F)F)nn(Cc2nc(C(F)(F)F)ccc2C(=O)C2=C(O)CCCC2=O)c1=O [Compound A1.007]
Post-emergence action, Amaranthus (250 g a.i./ha): 9
Post-emergence action, Chenopodium (250 g a.i./ha): 10
Post-emergence action, Echinochloa (250 g a.i./ha): 8
Post-emergence action, Euphorbia (250 g a.i./ha): 4
Post-emergence action, Ipomea (250 g a.i./ha): 9
Post-emergence action, Sinapis (250 g a.i./ha): 8
Post-emergence action, Stellaria (250 g a.i./ha): 7
Post-emergence action, Xanthium (250 g a.i./ha): 9

COc1nn(Cc2nc(C(F)(F)F)ccc2C(=O)C2=C(O)C3CCC(C3)C2=O)c(=O)s1 (stereo not shown) [Compound A6.091]
Post-emergence action, Amaranthus (250 g a.i./ha): 8
Post-emergence action, Chenopodium (250 g a.i./ha): 9
Post-emergence action, Echinochloa (250 g a.i./ha): 9
Post-emergence action, Euphorbia (250 g a.i./ha): 8
Post-emergence action, Ipomea (250 g a.i./ha): 8
Post-emergence action, Sinapis (250 g a.i./ha): 8
Post-emergence action, Stellaria (250 g a.i./ha): 9
Post-emergence action, Xanthium (250 g a.i./ha): 9

COc1nn(Cc2nc(C(F)(F)F)ccc2C(=O)C2=C(O)C(C)(C)C(=O)C(C)(C)C2=O)c(=O)s1 [Compound A8.095]
Post-emergence action, Amaranthus (250 g a.i./ha): 9
Post-emergence action, Chenopodium (250 g a.i./ha): 5
Post-emergence action, Echinochloa (250 g a.i./ha): 9
Post-emergence action, Euphorbia (250 g a.i./ha): 0
Post-emergence action, Ipomea (250 g a.i./ha): 9
Post-emergence action, Sinapis (250 g a.i./ha): 8
Post-emergence action, Stellaria (250 g a.i./ha): 7
Post-emergence action, Xanthium (250 g a.i./ha): 8

CSC(=O)n1c(C)cc(=O)n1Cc1nc(C(F)(F)F)ccc1C(=O)c1cnn(C)c1O [Compound B1.062]
Post-emergence action, Amaranthus (250 g a.i./ha): 9
Post-emergence action, Chenopodium (250 g a.i./ha): 9
Post-emergence action, Echinochloa (250 g a.i./ha): 4
Post-emergence action, Euphorbia (250 g a.i./ha): 9
Post-emergence action, Ipomea (250 g a.i./ha): 7
Post-emergence action, Sinapis (250 g a.i./ha): 8
Post-emergence action, Stellaria (250 g a.i./ha): 8
Post-emergence action, Xanthium (250 g a.i./ha): 6

Cn1c(C(F)(F)F)nn(Cc2nc(C(F)(F)Cl)ccc2C(=O)C2=C(O)CCCC2=O)c1=O [Compound A1.001, 2-[6-(Chloro-difluoro-methyl)-3-(2-hydroxy-6-oxo-cyclohex-1-ene-carbonyl)-pyridin-2-ylmethyl]-4-methyl-5-trifluoromethyl-2.4-dihydro-[1.2.4]triazol-3-one]
Post-emergence action, Amaranthus (125 g a.i./ha): 8
Post-emergence action, Chenopodium (125 g a.i./ha): 9
Post-emergence action, Echinochloa (125 g a.i./ha): 4
Post-emergence action, Euphorbia (125 g a.i./ha): 4
Post-emergence action, Ipomea (125 g a.i./ha): 8
Post-emergence action, Sinapis (125 g a.i./ha): 8
Post-emergence action, Stellaria (125 g a.i./ha): 8
Post-emergence action, Xanthium (125 g a.i./ha): 8

CSC(=O)n1c(C)cc(=O)n1Cc1nc(C(F)(F)F)ccc1C(=O)C1=C(O)C(C)(C)C(=O)C(C)(C)C1=O [Compound A8.062]
Post-emergence action, Amaranthus (250 g a.i./ha): 9
Post-emergence action, Chenopodium (250 g a.i./ha): 10
Post-emergence action, Echinochloa (250 g a.i./ha): 9
Post-emergence action, Euphorbia (250 g a.i./ha): 9
Post-emergence action, Ipomea (250 g a.i./ha): 8
Post-emergence action, Sinapis (250 g a.i./ha): 9
Post-emergence action, Stellaria (250 g a.i./ha): 5
Post-emergence action, Xanthium (250 g a.i./ha): 0

O=C1CCCC(O)=C1C(=O)c1ccc(C(F)(F)F)nc1Cn1sccc1=O [Compound A1.109]
Post-emergence action, Amaranthus (250 g a.i./ha): 9
Post-emergence action, Chenopodium (250 g a.i./ha): 10
Post-emergence action, Echinochloa (250 g a.i./ha): 8
Post-emergence action, Euphorbia (250 g a.i./ha): 10
Post-emergence action, Ipomea (250 g a.i./ha): 9
Post-emergence action, Sinapis (250 g a.i./ha): 3
Post-emergence action, Stellaria (250 g a.i./ha): 5
Post-emergence action, Xanthium (250 g a.i./ha): 9

CC(C)c1cn(-c2ccccc2)c(=O)n1Cc1nc(C(F)(F)F)ccc1C(=O)c1cnn(C)c1O [Compound B1.158]
Post-emergence action, Amaranthus (250 g a.i./ha): 7
Post-emergence action, Chenopodium (250 g a.i./ha): 8
Post-emergence action, Echinochloa (250 g a.i./ha): 4
Post-emergence action, Euphorbia (250 g a.i./ha): 7
Post-emergence action, Ipomea (250 g a.i./ha): 8
Post-emergence action, Sinapis (250 g a.i./ha): 7
Post-emergence action, Stellaria (250 g a.i./ha): 7
Post-emergence action, Xanthium (250 g a.i./ha): 5

COc1nn(Cc2nc(C(F)(F)F)ccc2C(=O)c2cnn(C)c2O)c(=O)n1C1CC1 [Compound B1.039]
Post-emergence action, Amaranthus (250 g a.i./ha): 6
Post-emergence action, Chenopodium (250 g a.i./ha): 8
Post-emergence action, Echinochloa (250 g a.i./ha): 9
Post-emergence action, Euphorbia (250 g a.i./ha): 9
Post-emergence action, Ipomea (250 g a.i./ha): 8
Post-emergence action, Sinapis (250 g a.i./ha): 9
Post-emergence action, Stellaria (250 g a.i./ha): 9
Post-emergence action, Xanthium (250 g a.i./ha): 8

CCN1C(=O)N(Cc2nc(C(F)(F)F)ccc2C(=O)C2=C(O)C(C)(C)C(=O)C(C)(C)C2=O)C(=O)C1C (stereo not shown) [Compound A8.174]
Post-emergence action, Amaranthus (250 g a.i./ha): 8
Post-emergence action, Chenopodium (250 g a.i./ha): 9
Post-emergence action, Echinochloa (250 g a.i./ha): 0
Post-emergence action, Euphorbia (250 g a.i./ha): 7
Post-emergence action, Ipomea (250 g a.i./ha): 8
Post-emergence action, Sinapis (250 g a.i./ha): 7
Post-emergence action, Stellaria (250 g a.i./ha): 7
Post-emergence action, Xanthium (250 g a.i./ha): 7

Cc1nn(CCOCc2nc(C(F)(F)F)ccc2C(=O)C2=C(O)C3CCC(C3)C2=O)c(=O)s1 (stereo not shown) [Compound A6.082]
Post-emergence action, Amaranthus (250 g a.i./ha): 8
Post-emergence action, Chenopodium (250 g a.i./ha): 9
Post-emergence action, Echinochloa (250 g a.i./ha): 7
Post-emergence action, Euphorbia (250 g a.i./ha): 7
Post-emergence action, Ipomea (250 g a.i./ha): 8
Post-emergence action, Sinapis (250 g a.i./ha): 5
Post-emergence action, Stellaria (250 g a.i./ha): 9
Post-emergence action, Xanthium (250 g a.i./ha): 7

Cn1ncc(C(=O)c2ccc(C(F)(F)F)nc2Cn2c(=O)oc3cc(Cl)ccc32)c1O [Compound B1.194]
Post-emergence action, Amaranthus (250 g a.i./ha): 9
Post-emergence action, Chenopodium (250 g a.i./ha): 9
Post-emergence action, Echinochloa (250 g a.i./ha): 9
Post-emergence action, Euphorbia (250 g a.i./ha): 9
Post-emergence action, Ipomea (250 g a.i./ha): 7
Post-emergence action, Sinapis (250 g a.i./ha): 7
Post-emergence action, Stellaria (250 g a.i./ha): 8
Post-emergence action, Xanthium (250 g a.i./ha): 9

CCOc1nn(Cc2nc(C(F)(F)F)ccc2C(=O)C2=C(O)CCCC2=O)c(=O)n1C [Compound A1.043]
Post-emergence action, Amaranthus (250 g a.i./ha): 9
Post-emergence action, Chenopodium (250 g a.i./ha): 9
Post-emergence action, Echinochloa (250 g a.i./ha): 7
Post-emergence action, Euphorbia (250 g a.i./ha): 7
Post-emergence action, Ipomea (250 g a.i./ha): 9
Post-emergence action, Sinapis (250 g a.i./ha): 6
Post-emergence action, Stellaria (250 g a.i./ha): 9
Post-emergence action, Xanthium (250 g a.i./ha): 9

Cc1nn(Cc2nc(C(F)(F)F)ccc2C(=O)C2=C(O)C3CCC(C3)C2=O)c(=O)o1 (stereo not shown) [Compound A6.097]
Post-emergence action, Amaranthus (250 g a.i./ha): 7
Post-emergence action, Chenopodium (250 g a.i./ha): 9
Post-emergence action, Echinochloa (250 g a.i./ha): 7
Post-emergence action, Euphorbia (250 g a.i./ha): 7
Post-emergence action, Ipomea (250 g a.i./ha): 7
Post-emergence action, Sinapis (250 g a.i./ha): 8
Post-emergence action, Stellaria (250 g a.i./ha): 9
Post-emergence action, Xanthium (250 g a.i./ha): 7
